Assay results published in patent US10919869B2, “Thiazole derivative and applications” (EAST CHINA UNIVERSITY OF SCIENCE AND TECHNOLOGY, priority 2016, dated 2021).

Target: hsDHODH (Homo sapiens (Human), UniProt Q02127)
Experiment: Activity test at enzyme level: DHODH inhibition, DCIP absorbance at 600 nm
Format: biochemical
Conditions: purified DHODH 10 nM, DHO 500 μM, CoQ 100 μM, DCIP 120 μM; read-out: IC50 (μM) hsDHODH
Method: Culture and Purification of hsDHODH Protein
The correctly sequenced recombinant plasmid pET-19b-DHODH was transformed into competent E. coli BL21 (DE3), and cultured on LB plate containing ampicillin. Colonies were randomly selected, inoculated into LB medium containing […], and incubate overnight at 37° C., 230 rpm. The cells were inoculated at a ratio of 1:200 in 500 mL of LB medium containing […] and expanded at 37° C., 230 rpm. When the OD value of the cells reached 0.8-1, IPTG was added into the medium to a final concentration of IPDG of 0.5 mM, and expression was induced overnight at 25° C. The induced cells were collected by centrifugation at […], 4° C., washed with deionized water, and centrifuged again to collect the bacterial pellet, which was stored at −80° C.
Purification of protein: cells were re-suspended in lysis liquid containing 50 mM HEPES (pH 8.0), 0.15 M NaCl, 10 mM imidazole, 10% glycerol, 0.1% Triton X-100, and a small amount of soy protease inhibitor added. After re-suspended and mixed homogeneously, cells were ultrasonically disrupted. The disruption solution was centrifuged for 30 min, and the supernatant and precipitate were taken for protein electrophoresis to determine the form of protein. The supernatant was loaded onto a Ni-NTA column, and the pass-through liquid was collected, and then the resin was washed for 3-4 times with a lysis liquid containing 20 mM imidazole, and finally eluted with a lysis liquid containing 300 mM imidazole. After elution, protein solution was collected. 10 μL of the above protein sample was taken for SDS-PAGE electrophoresis to determine the content of target protein. Finally, the eluted protein solution is dialyzed in the dialysis liquid to remove imidazole, thereby obtaining a pure protein.
Method for Testing Activities of Compounds at Enzyme Level
Principles of activity test at enzyme level: firstly, dihydroorotate (DHO) is oxidatively dehydrogenated by DHODH to form orotic acid (Orotate, OA), accompanied by reduction of Flavin mononucleotide (FMN) into reduced flavin mononucleotide (FMNH2) by accepting 2H+ and 2e−, then coenzyme Q (CoQ) as hydrogen acceptor accepting electron and proton from FMNH2 is reduced into reduced coenzyme Q (CoQH2), reduced coenzyme Q transfers electrons to a chromogenic substrate, […] (DCIP), and finally DCIP was reduced. […] The degree to which the substrate DHO is oxidized can be judged based on the degree of decrease in absorbance. The degree of oxidation of the substrate DHO per unit time is the initial rate of the enzymatic reaction. Upon addition of a inhibitor, the initial rate of the enzymatic reaction is reduced.
Substrate DHO was added to start the reaction with a DHO final concentration of 500 μM. The absorbance was read at 600 nm using a BioTek microplate reader and read every 30 s for 6 min. […] For calculating IC50 of a compound, Origin 8.0 was used to test the inhibition rate at least 8 concentrations.

hsDHODH, sequence (Q02127 whole entry): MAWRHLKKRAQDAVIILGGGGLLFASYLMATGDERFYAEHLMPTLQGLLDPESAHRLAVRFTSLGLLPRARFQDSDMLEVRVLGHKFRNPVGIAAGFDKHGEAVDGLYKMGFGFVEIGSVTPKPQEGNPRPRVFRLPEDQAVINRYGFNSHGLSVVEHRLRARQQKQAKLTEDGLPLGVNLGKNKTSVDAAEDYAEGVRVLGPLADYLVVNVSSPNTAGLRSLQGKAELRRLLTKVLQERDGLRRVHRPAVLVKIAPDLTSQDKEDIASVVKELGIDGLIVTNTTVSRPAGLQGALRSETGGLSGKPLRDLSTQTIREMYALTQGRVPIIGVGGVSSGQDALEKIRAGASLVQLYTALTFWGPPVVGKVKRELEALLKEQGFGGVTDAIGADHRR

| IC50 | Structure (SMILES) |
| --- | --- |
| 0.0086 ± 0.0001 µM | CCCN(/N=C/c1ccccc1C(=O)O)c1nc(-c2ccccc2Cl)cs1 [Compound 3, (E)-4-(2-chlorophenyl)-2-[1-propyl-2-(2-carboxybenzylidene)hydrazino]thiazole] |
| 0.0191 ± 0.0006 µM | CCCC(C)N(/N=C/c1ccccc1C(=O)O)c1nc(-c2ccccc2Cl)cs1 (stereo not drawn) [Compound 6, (E)-4-(2-chlorophenyl)-2-[1-(2-amyl)-2-(2-carboxybenzylidene)hydrazino]thiazole] |
| 0.0868 ± 0.0009 µM | CN(/N=C/c1ccc(C(F)(F)F)cc1C(=O)O)c1nc(-c2ccccc2Cl)cs1 [Compound 8, (E)-4-(2-chlorophenyl)-2-[1-methyl-2-(4-trifluoromethyl-2-carboxybenzylidene)hydrazino]thiazole] |
| 0.0084 ± 0.0001 µM | Cc1ccc(/C=N/N(C)c2nc(-c3ccccc3Cl)cs2)c(C(=O)O)c1 [Compound 9, (E)-4-(2-chlorophenyl)-2-[1-methyl-2-(4-methyl-2-carboxybenzylidene)hydrazino]thiazole] |
| 0.0018 ± 0.0001 µM | CN(/N=C/c1ccc(F)cc1C(=O)O)c1nc(-c2ccccc2Cl)cs1 [Compound 10, (E)-4-(2-chlorophenyl)-2-[1-methyl-2-(2-carboxyl-4-fluorobenzylidene)hydrazino]thiazole] |
| 0.0136 ± 0.0005 µM | Cc1ccc(/C=N/N(C)c2nc(-c3ccccc3)c(C)s2)c(C(=O)O)c1 [Compound 11, (E)-5-methyl-4-phenyl-2-[1-methyl-2-(4-methyl-2-carboxybenzylidene)hydrazino]thiazole] |
| 0.0088 ± 0.0001 µM | Cc1sc(N(C)/N=C/c2ccccc2C(=O)O)nc1-c1ccccc1 [Compound 12, (E)-5-methyl-4-phenyl-2-[1-methyl-2-(2-carboxybenzylidene)hydrazino]thiazole] |
| 0.356 ± 0.0064 µM | CCc1sc(N/N=C/c2ccccc2C(=O)O)nc1-c1ccccc1Cl [Compound 14, (E)-5-ethyl-4-(2-chlorophenyl)-2-(2-carboxylbenzylidenehydrazino)thiazole] |
| 0.0662 ± 0.0002 µM | Cc1sc(N/N=C/c2ccccc2C(=O)O)nc1-c1ccccc1Cl [Compound 15, (E)-5-methyl-4-(2-chlorophenyl)-2-(2-carboxylbenzylidenehydrazino)thiazole] |
| 0.0811 ± 0.0001 µM | Cc1sc(N/N=C/c2ccccc2C(=O)O)nc1-c1ccccc1 [Compound 17, (E)-5-methyl-4-phenyl-2-(2-carboxylbenzylidenehydrazino)thiazole] |
| 0.0282 µM | CN(/N=C/c1ccccc1C(=O)O)c1nc(-c2cc(Cl)ccc2Cl)cs1 [Compound 19, (E)-4-(2,5-dichlorophenyl)-2-[1-methyl-2-(2-carboxybenzylidene)hydrazino]thiazole] |
| 0.0244 ± 0.0005 µM | CN(/N=C/c1ccccc1C(=O)O)c1nc(-c2ccccc2)cs1 [Compound 20, (E)-4-phenyl-2-[1-methyl-2-(2-carboxybenzylidene)hydrazino]thiazole] |
| 0.0106 µM | CN(/N=C/c1ccccc1C(=O)O)c1nc(-c2cccc(Cl)c2)cs1 [Compound 21, (E)-4-(3-chlorophenyl)-2-[1-methyl-2-(2-carboxybenzylidene)hydrazino]thiazole] |
| 0.0154 ± 0.0002 µM | CCCC(C)N(/N=C/c1ccccc1C(=O)O)c1nc(-c2ccccc2Cl)c(C)s1 (stereo not drawn) [Compound 22, (E)-5-methyl-4-(2-chlorophenyl)-2-[1-(2-amyl)-2-(2-carboxybenzylidene)hydrazino]thiazole] |
| 0.0044 µM | CN(/N=C/c1cc(F)c(F)cc1C(=O)O)c1nc(-c2ccccc2Cl)cs1 [Compound 23] |
| 0.0214 ± 0.0005 µM | CN(/N=C/c1cc(O)c(F)cc1C(=O)O)c1nc(-c2ccccc2Cl)cs1 [Compound 24] |
| 0.0316 ± 0.0001 µM | CN(/N=C/c1cc(N)c(F)cc1C(=O)O)c1nc(-c2ccccc2Cl)cs1 [Compound 25] |
| 0.234 ± 0.0068 µM | O=C(O)c1c(F)cccc1/C=N/Nc1nc(-c2ccccc2Cl)cs1 [Compound 58, (E)-2-((2-(4-(2-chlorophenyl)thiazol-2-yl)hydrazono)methyl)-6-fluorobenzoic acid] |
